# From PMC3806773, “Discovery of P1736, a Novel Antidiabetic Compound That Improves Peripheral Insulin Sensitivity in Mice Models” (PLoS ONE, 2013)
# pEC50: −log10 of the molar value. Counter-ions that a name gives are not always drawn. Marks after values point to notes of the source that are not given here.
# Assays:
# [1] = tested on: soleus muscles of ob/ob mice; assay: Ex vivo muscle glucose uptake in ob/ob mice; conditions: for Glucose Uptake in soleus muscle (% Increase): ex vivo after chronic administration
# Method: On day 9, food was withheld for 4 h and blood was collected for the analysis of plasma chemistry and plasma insulin levels. On days 12 and 13, 3-4 animals from each group were sacrificed and soleus muscles were excised. Radiolabelled glucose uptake was measured in the isolated soleus muscles by the method of Zierath and colleagues. Plasma Insulin was estimated using mouse ELISA kit (Linco, USA)
# db/db mice [2] = assay: Antidiabetic activity in db/db mice, once daily oral dosing; type: in vivo
# Method: After two weeks of acclimatization, db/db mice were deprived of food for 4h. Their weights were measured and blood was obtained by retro-orbital puncture for the determination of plasma glucose. The animals were randomized into groups (7-10/group) based on body weight and plasma glucose levels. Animals were dosed orally once a day, between 9.00 -10.00am for 15 consecutive days, with either P1736 (150mg/kg) or metformin (150mg/kg) or 0.5% carboxy methyl cellulose (CMC) vehicle. The dose of 150 mg/kg was chosen for once-a-day dosing of P1736, on the basis of its pharmacokinetic profile and to maintain high plasma concentrations. Body weight was measured daily. On days 10 and 15, blood samples were collected at the end of the 4h fasting after drug administration. Plasma samples were analysed for biochemical parameters, by enzymatic methods using autoanalyser 902(Hitachi instruments, Japan). Plasma adiponectin levels were measured using mouse ELISA kits (Millipore Inc. USA).
# ob/ob mice = assay: Antidiabetic activity in ob/ob mice; type: in vivo; conditions: 10 days
# [3] = tested on: insulin resistant 3T3 adipocytes; assay: Glucose uptake in dexamethasone-induced insulin resistant 3T3 adipocytes; type: cell-based
# Method: Fully differentiated 3T3 adipocytes generated in 24-well plates were used after day 8 of differentiation. Insulin resistance was induced essentially as described before. Briefly, adipocytes were incubated with 100 nM dexamethasone for six consecutive days. […].
# Glucose uptake was measured essentially according to the method of Gao et al using ^14C-labeled 2-deoxy glucose as the tracer. Activity in this assay is defined as a statistically significant increase in glucose uptake of minimum 50% compared to the uptake seen in cells exposed to vehicle. Effect of wortmannin on glucose uptake was studied according to the method of Hausdorff et al using 100 nM wortmannin.
# GLUT-4 = GLUT-4 translocation in insulin resistant 3T3 adipocytes (immunofluorescence); conditions: 4 days, 200nM insulin stimulated
# Method: GLUT-4 translocation was evaluated by the method of Hausdorff et al [14] with a few modifications. Insulin resistant 3T3 adipocytes were prepared in 24-well plates fitted with coverslip inserts. After incubation with compounds, the media was removed. The cells were stimulated with 200nM insulin and processed for immunofluorescence detection using anti-GLUT-4 antibody (1:1000) followed by FITC labeled secondary antibody (1:1000).
# Later the cells were stimulated with 200nmol/l insulin for 25 minutes. Whole cell immunofluorescence assay for GLUT-4 translocation was performed using rabbit antibody against GLUT - 4 followed by incubation with FITC labeled secondary antibody. Confocal images were obtained using Bio-Rad Laser Scanning Microscope.
# db/db mice [4] = assay: Dose response experiment in db/db mice, twice daily dosing; type: in vivo; conditions: 5 mg/kg twice daily
# Method: The doses were given during 8.00-9.00 am and 5.00-6.00 pm daily. On day 15, blood was collected and plasma samples were analysed as described above.
# 3T3-L1 cells = assay: Adipogenesis screen; type: cell-based; conditions: 1.0 µM, positive control; vehicle induced 7-10%
# Method: Adipogenesis screening was carried out essentially according to the method of Choi et al. […] Compounds that caused increase in adipogenesis by more than 5-fold of vehicle (0.1% DMSO) were considered positive and were selected for further screening.
# [5] = 150 mg/kg oral once daily, day 10
# [6] = 150 mg/kg oral once daily, day 15
structure (smiles),measurement,setting,value
"CN(C)C(=N)N=C(N)N [Metformin, Metformin hydrochloride, reference compound]",Plasma Glucose (% Reduction),[1]; 150.0 mg/kg,37%
same,Glucose Uptake in soleus muscle (% Increase),[1]; 150.0 mg/kg,38* %
same,Glucose Uptake in soleus muscle (% Increase),"[1]; 150.0 mg/kg, listed as metformin",38%
same,decrease in plasma triglyceride,db/db mice [2]; [5],18%
same,reduction in plasma glucose,db/db mice [2]; [5],24%
same,decrease in plasma triglyceride,db/db mice [2]; [6],31%
same,reduction in plasma glucose,db/db mice [2]; [6],25%
same,plasma adiponectin levels,"db/db mice [2]; 150 mg/kg oral once daily, vehicle 7.5 ± 0.44",8.9 ± 0.64 µg/mL
same,Liver weight,"db/db mice [2]; 150mg/kg, vehicle 1.8 + 0.10",2.1 + 0.08 gm
same,Plasma ALT,"db/db mice [2]; 150mg/kg, vehicle 91.2 + 12.7",75.3 + 6.4 U/L
same,Plasma AST,"db/db mice [2]; 150mg/kg, vehicle 100.6 + 8.8",101.7 + 8.4 U/L
same,reduction of high initial plasma glucose,"db/db mice [2]; db/db mice with high initial plasma glucose, 150 mg/kg once daily, 10 days",25%
same,lowering of plasma insulin levels,ob/ob mice; 150 mg/kg,43%
same,effect on glucose uptake,"[3]; 1.0 mM, 4 days exposure",no effect
same,GLUT-4 translocation to plasma membrane,GLUT-4; 1 mM,inactive
"CN(CCOc1ccc(CC2SC(=O)NC2=O)cc1)c1ccccn1 (stereo not drawn) [Rosiglitazone, rosiglitazone maleate, reference compound]",Plasma Glucose (% Reduction),[1]; 5.0 mg/kg,49%
same,Glucose Uptake in soleus muscle (% Increase),[1]; 5.0 mg/kg,147** %
same,Glucose Uptake in soleus muscle (% Increase),"[1]; 5.0 mg/kg, listed as rosiglitazone",147%
same,lowering of plasma insulin levels,ob/ob mice; 5 mg/kg,80%
same,weight gain,db/db mice [4]; 15 days,13%
same,decrease in plasma glucose,db/db mice [4]; day 15,60%
same,decrease in plasma triglyceride,db/db mice [4]; day 15,40%
same,decrease in plasma glucose,"db/db mice [4]; day 15, listed as rosiglitazone",about 60%
same,pEC50,"[3]; Adipocyte, dose response, insulin resistant adipocytes, read-out: EC50 of increase in glucose uptake",7.70
same,effect on glucose uptake,[3]; rosiglitazone 0.1 µM,potentiated glucose uptake and re-sensitized the cells
same,adipogenesis,3T3-L1 cells,> 90%
same,GLUT-4 translocation to plasma membrane,GLUT-4; 0.1 µM,caused GLUT-4 translocation
